From patent publication US8937092B2, “Aryl or N-heteroaryl substituted methanesulfonamide derivatives as vanilloid receptor ligands” (Gruenenthal GmbH, priority 2011, dated 2015) come the findings set out here.

One assay addresses vanilloid receptor 1 (VR1/TRPV1 receptor) (Homo sapiens, UniProt Q8NER1). Kind of assay: Functional FLIPR Ca2+ influx assay on vanilloid receptor 1, capsaicin (Cap) stimulus. Particulars: Ki from IC50 by Cheng-Prusoff, read-out: (f) Ki (human being) [nM], Cap. It counts as cell-based. The method, then: Furthermore, preference may be given to compounds according to the invention that cause a 50 percent displacement of capsaicin, which is present at a concentration of 100 nM, in a FLIPR assay with CHO K1 cells which were transfected with the human VR1 gene at a concentration of less than 2,000 nM, preferably less than 1,000 nM, particularly preferably less than 300 nM, most particularly preferably less than 100 nM, even more preferably less than 75 nM, additionally preferably less than 50 nM, most preferably less than 10 nM.
In the process, the Ca^2+ influx is quantified in the FLIPR assay with the aid of a Ca^2+-sensitive dye (type Fluo-4, Molecular Probes Europe BV, Leiden, the Netherlands) in a fluorescent imaging plate reader (FLIPR, Molecular Devices, Sunnyvale, USA), as described hereinafter.
Pharmacological Methods I. Functional Testing Carried Out on the Vanilloid Receptor 1 (VRI/TRPV1 Receptor) […]
The number of cells in the suspension is set to 3×10^5 per mL and 150 μL of this suspension are in each case introduced into a recess in the cell culture plates coated as described hereinbefore. In the incubator the plates are left for two to three days at 37° C., 5% by volume of CO2 and 95% relative humidity. Subsequently, the cells are loaded with 2 μM of Fluo-4 and 0.01% by volume of Pluronic F127 (Molecular Probes Europe BV, Leiden, the Netherlands) in HBSS buffer (Hank's buffered saline solution, Gibco Invitrogen GmbH, Karlsruhe, Germany) for 30 min at 37° C., washed 3 times with HBSS buffer and after further incubation for 15 minutes at room temperature used for Ca^2+ measurement in a FLIPR assay. The Ca^2+-dependent fluorescence is in this case measured before and after the addition of substances (λex=488 nm, λem=540 nm). Quantification is carried out by measuring the highest fluorescence intensity (FC, fluorescence counts) over time.
The FLIPR protocol consists of 2 substance additions. First the compounds to be tested (10 μM) are pipetted onto the cells and the Ca^2+ influx is compared with the control (capsaicin 10 μM). This provides the result in % activation based on the Ca^2+ signal after the addition of 10 μM of capsaicin (CP). After 5 minutes' incubation, 100 nM of capsaicin are applied and the Ca^2+ influx is also determined.
Desensitising agonists and antagonists lead to suppression of the Ca^2+ influx. The % inhibition is calculated compared to the maximum achievable inhibition with 10 μM of capsazepine.
Triple analyses (n=3) are carried out and repeated in at least 3 independent experiments (N=4).
Starting from the percentage displacement caused by different concentrations of the compounds to be tested of general formula I, IC50 inhibitory concentrations which cause a 50-percent displacement of capsaicin were calculated. K, values for the test substances were obtained by conversion by means of the Cheng-Prusoff equation (Cheng, Prusoff; Biochem. Pharmacol. 22, 3099-3108, 1973).
The affinity of the compounds according to the invention for the vanilloid receptor 1 (VR1/TRPV1 receptor) was determined as described herein before (pharmacological method I).
The value after the “@” symbol indicates the concentration at which the inhibition (as a percentage) was respectively determined.
Usually Ki stands for the dissociation constant of the complex between target and ligand, obtained from inhibition or displacement. On to `Cc1cccc(-c2nc(C(F)(F)F)ccc2CNC(=O)[C@@H](C)c2ccc(CNS(C)(=O)=O)c(F)c2)c1` [Example 25, (S)-2-(3-fluoro-4-(methylsulfonamidomethyl)phenyl)-N-((2-m-tolyl-6-(trifluoromethyl)pyridin-3-yl)methyl)propanamide], for which the Ki amounted to 15 nM.
As to `Cc1cccc(-c2nc(C(F)(F)F)ccc2CNC(=O)Nc2ccc(CNS(C)(=O)=O)c(F)c2)c1` [Example 27, N-(2-fluoro-4-(3-((2-m-tolyl-6-(trifluoromethyl)pyridin-3-yl)methyl)ureido)benzyl)methanesulfonamide], the Ki worked out at 10 nM.
As to `Cc1ccc(-c2nc(C(F)(F)F)ccc2CNC(=O)C(C)c2ccc(CNS(C)(=O)=O)c(F)c2)cc1` (stereo not shown) [Example 29, 2-(3-fluoro-4-(methylsulfonamidomethyl)phenyl)-N-((2-p-tolyl-6-(trifluoromethyl)pyridin-3-yl)methyl)propanamide], the inhibitory constant (Ki) is 32 nM.
Consider `Cc1cccc(-c2nc(C(F)(F)F)ccc2CNC(=O)C(C)c2ccc(CNS(C)(=O)=O)c(F)c2)c1C` (stereo not shown) [Example 30, N-((2-(2,3-dimethylphenyl)-6-(trifluoromethyl)pyridin-3-yl)methyl)-2-(3-fluoro-4-(methylsulfonamidomethyl)phenyl)propanamide], for which the Ki was 41 nM.
Same read-out and setting: with `Cc1ccc(-c2nc(C(F)(F)F)ccc2CNC(=O)C(C)c2ccc(CNS(C)(=O)=O)c(F)c2)cc1C` (stereo not shown) [Example 31, N-((2-(3,4-dimethylphenyl)-6-(trifluoromethyl)pyridin-3-yl)methyl)-2-(3-fluoro-4-(methylsulfonamidomethyl)phenyl)propanamide] the figure was 28 nM.
As for `Cc1cc(C)cc(-c2nc(C(F)(F)F)ccc2CNC(=O)C(C)c2ccc(CNS(C)(=O)=O)c(F)c2)c1` (stereo not shown) [Example 32, N-((2-(3,5-dimethylphenyl)-6-(trifluoromethyl)pyridin-3-yl)methyl)-2-(3-fluoro-4-(methylsulfonamidomethyl)phenyl)propanamide], the Ki stood at 22 nM.
The same measure, in the same setting: with `Cc1cccc(-c2nc(C(F)(F)F)ccc2CNC(=O)C(C)c2ccc(CNS(C)(=O)=O)c(F)c2)c1F` (stereo not shown) [Example 34, N-((2-(2-fluoro-3-methylphenyl)-6-(trifluoromethyl)pyridin-3-yl)methyl)-2-(3-fluoro-4-(methylsulfonamidomethyl)phenyl)propanamide] the figure was 27 nM; with `Cc1cc(-c2nc(C(F)(F)F)ccc2CNC(=O)C(C)c2ccc(CNS(C)(=O)=O)c(F)c2)ccc1F` (stereo not shown) [Example 35, N-((2-(4-fluoro-3-methylphenyl)-6-(trifluoromethyl)pyridin-3-yl)methyl)-2-(3-fluoro-4-(methylsulfonamidomethyl)phenyl)propanamide], 7 nM; with `Cc1cc(F)cc(-c2nc(C(F)(F)F)ccc2CNC(=O)C(C)c2ccc(CNS(C)(=O)=O)c(F)c2)c1` (stereo not shown) [Example 36, 2-(3-fluoro-4-(methylsulfonamidomethyl)phenyl)-N-((2-(3-fluoro-5-methylphenyl)-6-(trifluoromethyl)pyridin-3-yl)methyl)propanamide], 63 nM.
The same measure, in the same setting: as for `Cc1ccc(F)c(-c2nc(C(F)(F)F)ccc2CNC(=O)C(C)c2ccc(CNS(C)(=O)=O)c(F)c2)c1` (stereo not shown) [Example 37, 2-(3-fluoro-4-(methylsulfonamidomethyl)phenyl)-N-((2-(2-fluoro-5-methylphenyl)-6-(trifluoromethyl)pyridin-3-yl)methyl)propanamide], the figure is 16 nM.
Same read-out and setting: as for `Cc1cc(-c2nc(C(F)(F)F)ccc2CNC(=O)C(C)c2ccc(CNS(C)(=O)=O)c(F)c2)ccc1C#N` (stereo not shown) [Example 39, N-((2-(4-cyano-3-methylphenyl)-6-(trifluoromethyl)pyridin-3-yl)methyl)-2-(3-fluoro-4-(methylsulfonamidomethyl)phenyl)propanamide], the figure is 66 nM; as for `COc1c(C)cccc1-c1nc(C(F)(F)F)ccc1CNC(=O)C(C)c1ccc(CNS(C)(=O)=O)c(F)c1` (stereo not shown) [Example 42, 2-(3-fluoro-4-(methylsulfonamidomethyl)phenyl)-N-((2-(2-methoxy-3-methylphenyl)-6-(trifluoromethyl)pyridin-3-yl)methyl)propanamide], 65 nM.
As to `COc1ccc(-c2nc(C(F)(F)F)ccc2CNC(=O)C(C)c2ccc(CNS(C)(=O)=O)c(F)c2)cc1C` (stereo not shown) [Example 43, 2-(3-fluoro-4-(methylsulfonamidomethyl)phenyl)-N-((2-(4-methoxy-3-methylphenyl)-6-(trifluoromethyl)pyridin-3-yl)methyl)propanamide], the Ki was 35 nM.
Same read-out and setting: as for `COc1cc(C)cc(-c2nc(C(F)(F)F)ccc2CNC(=O)C(C)c2ccc(CNS(C)(=O)=O)c(F)c2)c1` (stereo not shown) [Example 44, 2-(3-fluoro-4-(methylsulfonamidomethyl)phenyl)-N-((2-(3-methoxy-5-methylphenyl)-6-(trifluoromethyl)pyridin-3-yl)methyl)propanamide], the figure is 106 nM.
The same measure, in the same setting: as for `CCOc1ccc(-c2nc(C(F)(F)F)ccc2CNC(=O)C(C)c2ccc(CNS(C)(=O)=O)c(F)c2)cc1C` (stereo not shown) [Example 46, N-((2-(4-ethoxy-3-methylphenyl)-6-(trifluoromethyl)pyridin-3-yl)methyl)-2-(3-fluoro-4-(methylsulfonamidomethyl)phenyl)propanamide], the figure is 12 nM; as for `CCOc1cc(C)cc(-c2nc(C(F)(F)F)ccc2CNC(=O)C(C)c2ccc(CNS(C)(=O)=O)c(F)c2)c1` (stereo not shown) [Example 47, N-((2-(3-ethoxy-5-methylphenyl)-6-(trifluoromethyl)pyridin-3-yl)methyl)-2-(3-fluoro-4-(methylsulfonamidomethyl)phenyl)propanamide], 37 nM.
As for `COCc1cccc(-c2nc(C(F)(F)F)ccc2CNC(=O)C(C)c2ccc(CNS(C)(=O)=O)c(F)c2)c1` (stereo not shown) [Example 49, 2-(3-fluoro-4-(methylsulfonamidomethyl)phenyl)-N-((2-(3-(methoxymethyl)phenyl)-6-(trifluoromethyl)pyridin-3-yl)methyl)propanamide], the Ki came to 28 nM.
Still for that read-out and setting: with `CC(C)c1cccc(-c2nc(C(F)(F)F)ccc2CNC(=O)C(C)c2ccc(CNS(C)(=O)=O)c(F)c2)c1` (stereo not shown) [Example 50, 2-(3-fluoro-4-(methylsulfonamidomethyl)phenyl)-N-((2-(3-isopropylphenyl)-6-(trifluoromethyl)pyridin-3-yl)methyl)propanamide] the figure was 2 nM; with `CC(C(=O)NCc1ccc(C(F)(F)F)nc1-c1cccc(C(C)(C)C)c1)c1ccc(CNS(C)(=O)=O)c(F)c1` (stereo not shown) [Example 51, N-((2-(3-tert-butylphenyl)-6-(trifluoromethyl)pyridin-3-yl)methyl)-2-(3-fluoro-4-(methylsulfonamidomethyl)phenyl)propanamide], 1 nM.

The same assay, now with this note: inhibition at 1 μM, read-out: (f) inhibition (human being), Cap, @1 μM.
As usually defined, the inhibition is how much of the control response was suppressed. For `COc1ccc(C)cc1-c1nc(C(F)(F)F)ccc1CNC(=O)C(C)c1ccc(CNS(C)(=O)=O)c(F)c1` (stereo not shown) [Example 45, 2-(3-fluoro-4-(methylsulfonamidomethyl)phenyl)-N-((2-(2-methoxy-5-methylphenyl)-6-(trifluoromethyl)pyridin-3-yl)methyl)propanamide], the inhibition at 1 µM is 15%.

Still in this assay, the particulars now being: inhibition at 5 μM, read-out: (f) inhibition (human being), Cap, @5 μM.
For the compound `Cc1cccc(-c2nc(C(F)(F)F)ccc2CNC(=O)[C@H](C)c2ccc(CNS(C)(=O)=O)c(F)c2)c1` [Example 26, (R)-2-(3-fluoro-4-(methylsulfonamidomethyl)phenyl)-N-((2-m-tolyl-6-(trifluoromethyl)pyridin-3-yl)methyl)propanamide], the inhibition at 5 µM turned out to be 33%.
For `Cc1ccc(C)c(-c2nc(C(F)(F)F)ccc2CNC(=O)C(C)c2ccc(CNS(C)(=O)=O)c(F)c2)c1` (stereo not shown) [Example 33, N-((2-(2,5-dimethylphenyl)-6-(trifluoromethyl)pyridin-3-yl)methyl)-2-(3-fluoro-4-(methylsulfonamidomethyl)phenyl)propanamide], the inhibition at 5 µM is 35%.
